Test results from PubChem BioAssay (NCI).
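Cells were grown in 96-well plates and exposed to each compound for 48 hours at five concentrations; endpoints were interpolated linearly between bracketing concentrations, or set to the highest concentration if not reached. Abbreviation: GI50, concentration required for 50% inhibition of growth. The concentration for full growth arrest is given as TGI.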

Assays:
Assay in all cases: growth of human tumour cells (NCI), 48 h
SF-268 CNS = test system: SF-268 CNS
LOX IMVI melanoma = test system: LOX IMVI melanoma
CCRF-CEM leukemia = test system: CCRF-CEM leukemia
BT-549 breast = test system: BT-549 breast
NCI-H226 lung = test system: NCI-H226 lung
CAKI-1 renal = test system: CAKI-1 renal
MOLT-4 leukemia = test system: MOLT-4 leukemia
IGROV1 ovarian = test system: IGROV1 ovarian
SF-539 CNS = test system: SF-539 CNS
SN12C renal = test system: SN12C renal
NCI/ADR-RES ovarian = test system: NCI/ADR-RES ovarian
T-47D breast = test system: T-47D breast
EKVX NSCLC = test system: EKVX NSCLC
HL-60(TB) leukemia = test system: HL-60(TB) leukemia
SK-MEL-5 melanoma = test system: SK-MEL-5 melanoma
HT29 colon = test system: HT29 colon
RPMI-8226 leukemia = test system: RPMI-8226 leukemia
MDA-MB-435 = test system: MDA-MB-435
OVCAR-4 ovarian = test system: OVCAR-4 ovarian
OVCAR-8 ovarian = test system: OVCAR-8 ovarian
ACHN renal = test system: ACHN renal
A498 renal = test system: A498 renal
MALME-3M melanoma = test system: MALME-3M melanoma
U251 CNS = test system: U251 CNS
COLO 205 colon = test system: COLO 205 colon
SK-OV-3 ovarian = test system: SK-OV-3 ovarian
UACC-257 melanoma = test system: UACC-257 melanoma
K-562 leukemia = test system: K-562 leukemia
HOP-62 NSCLC = test system: HOP-62 NSCLC
HCT-15 colon = test system: HCT-15 colon
A549 NSCLC = test system: A549 NSCLC
HCC-2998 colon = test system: HCC-2998 colon
HCT-116 colon = test system: HCT-116 colon
TK-10 renal = test system: TK-10 renal
NCI-H522 lung = test system: NCI-H522 lung
SK-MEL-28 melanoma = test system: SK-MEL-28 melanoma
SNB-75 CNS = test system: SNB-75 CNS
SNB-19 CNS = test system: SNB-19 CNS
OVCAR-3 ovarian = test system: OVCAR-3 ovarian
MDA-MB-231 breast = test system: MDA-MB-231 breast
PC-3 prostate = test system: PC-3 prostate
SW-620 colon = test system: SW-620 colon
UACC-62 melanoma = test system: UACC-62 melanoma
SF-295 CNS = test system: SF-295 CNS
UO-31 renal = test system: UO-31 renal
HOP-92 NSCLC = test system: HOP-92 NSCLC
786-0 renal = test system: 786-0 renal
MCF7 breast = test system: MCF7 breast
NCI-H460 lung = test system: NCI-H460 lung
M14 melanoma = test system: M14 melanoma
HS 578T breast = test system: HS 578T breast
OVCAR-5 ovarian = test system: OVCAR-5 ovarian
NCI-H23 lung = test system: NCI-H23 lung
SK-MEL-2 melanoma = test system: SK-MEL-2 melanoma

Q: How did the GI50 (SF-268 CNS) turn out when `COC(=O)c1oc2c(C(C)=O)c(OCCN3CCOCC3)c(OC)cc2c1C` was run?
A: The GI50 was over 100 µM.

Q: What about the TGI (SF-268 CNS) of the same compound?
A: Its TGI is over 100 µM.

Q: And the GI50 (LOX IMVI melanoma)?
A: Its GI50 is over 100 µM.

Q: And the TGI (LOX IMVI melanoma)?
A: Its TGI is over 100 µM.

Q: And the GI50 (CCRF-CEM leukemia)?
A: Its GI50 is over 100 µM.

Q: What about the TGI (CCRF-CEM leukemia) of the same compound?
A: The TGI was over 100 µM.

Q: And the GI50 (BT-549 breast)?
A: Its GI50 is over 100 µM.

Q: And the TGI (BT-549 breast)?
A: Its TGI is over 100 µM.

Q: And the GI50 (NCI-H226 lung)?
A: Its GI50 is over 100 µM.

Q: And the TGI (NCI-H226 lung)?
A: Its TGI is over 100 µM.

Q: What about the GI50 (CAKI-1 renal) of the same compound?
A: Its GI50 is over 100 µM.

Q: And the TGI (CAKI-1 renal)?
A: The TGI was over 100 µM.

Q: And the GI50 (MOLT-4 leukemia)?
A: The GI50 was over 100 µM.

Q: What about the TGI (MOLT-4 leukemia) of the same compound?
A: The TGI was over 100 µM.

Q: What about the GI50 (IGROV1 ovarian) of the same compound?
A: Its GI50 is over 100 µM.

Q: And the TGI (IGROV1 ovarian)?
A: Its TGI is over 100 µM.

Q: And the GI50 (SF-539 CNS)?
A: The GI50 was over 100 µM.

Q: What about the TGI (SF-539 CNS) of the same compound?
A: The TGI was over 100 µM.

Q: And the GI50 (SN12C renal)?
A: Its GI50 is over 100 µM.

Q: What about the TGI (SN12C renal) of the same compound?
A: The TGI was over 100 µM.

Q: And the GI50 (NCI/ADR-RES ovarian)?
A: The GI50 was over 100 µM.

Q: What about the TGI (NCI/ADR-RES ovarian) of the same compound?
A: The TGI was over 100 µM.

Q: What about the GI50 (T-47D breast) of the same compound?
A: The GI50 was over 100 µM.

Q: What about the TGI (T-47D breast) of the same compound?
A: The TGI was over 100 µM.

Q: What about the GI50 (EKVX NSCLC) of the same compound?
A: The GI50 was over 100 µM.

Q: And the TGI (EKVX NSCLC)?
A: Its TGI is over 100 µM.

Q: And the GI50 (HL-60(TB) leukemia)?
A: The GI50 was over 100 µM.

Q: And the TGI (HL-60(TB) leukemia)?
A: Its TGI is over 100 µM.

Q: What about the GI50 (SK-MEL-5 melanoma) of the same compound?
A: The GI50 was over 100 µM.

Q: And the TGI (SK-MEL-5 melanoma)?
A: Its TGI is over 100 µM.

Q: And the GI50 (HT29 colon)?
A: The GI50 was over 100 µM.

Q: And the TGI (HT29 colon)?
A: The TGI was over 100 µM.

Q: And the GI50 (RPMI-8226 leukemia)?
A: Its GI50 is over 100 µM.

Q: What about the TGI (RPMI-8226 leukemia) of the same compound?
A: Its TGI is over 100 µM.

Q: And the GI50 (MDA-MB-435)?
A: The GI50 was over 100 µM.

Q: And the TGI (MDA-MB-435)?
A: The TGI was over 100 µM.

Q: What about the GI50 (OVCAR-4 ovarian) of the same compound?
A: The GI50 was over 100 µM.

Q: And the TGI (OVCAR-4 ovarian)?
A: Its TGI is over 100 µM.

Q: What about the GI50 (OVCAR-8 ovarian) of the same compound?
A: The GI50 was over 100 µM.

Q: And the TGI (OVCAR-8 ovarian)?
A: The TGI was over 100 µM.

Q: What about the GI50 (ACHN renal) of the same compound?
A: Its GI50 is over 100 µM.

Q: What about the TGI (ACHN renal) of the same compound?
A: The TGI was over 100 µM.

Q: What about the GI50 (A498 renal) of the same compound?
A: The GI50 was over 100 µM.

Q: What about the TGI (A498 renal) of the same compound?
A: The TGI was over 100 µM.

Q: What about the GI50 (MALME-3M melanoma) of the same compound?
A: The GI50 was over 100 µM.

Q: And the TGI (MALME-3M melanoma)?
A: Its TGI is over 100 µM.

Q: What about the GI50 (U251 CNS) of the same compound?
A: The GI50 was over 100 µM.

Q: And the TGI (U251 CNS)?
A: The TGI was over 100 µM.

Q: And the GI50 (COLO 205 colon)?
A: Its GI50 is over 100 µM.

Q: And the TGI (COLO 205 colon)?
A: The TGI was over 100 µM.

Q: And the GI50 (SK-OV-3 ovarian)?
A: The GI50 was over 100 µM.

Q: And the TGI (SK-OV-3 ovarian)?
A: Its TGI is over 100 µM.

Q: And the GI50 (UACC-257 melanoma)?
A: Its GI50 is over 100 µM.

Q: And the TGI (UACC-257 melanoma)?
A: Its TGI is over 100 µM.

Q: And the GI50 (K-562 leukemia)?
A: Its GI50 is over 100 µM.

Q: And the TGI (K-562 leukemia)?
A: Its TGI is over 100 µM.

Q: What about the GI50 (HOP-62 NSCLC) of the same compound?
A: The GI50 was over 100 µM.

Q: What about the TGI (HOP-62 NSCLC) of the same compound?
A: Its TGI is over 100 µM.

Q: What about the GI50 (HCT-15 colon) of the same compound?
A: The GI50 was over 100 µM.

Q: What about the TGI (HCT-15 colon) of the same compound?
A: The TGI was over 100 µM.

Q: And the GI50 (A549 NSCLC)?
A: The GI50 was over 100 µM.

Q: And the TGI (A549 NSCLC)?
A: The TGI was over 100 µM.

Q: And the GI50 (HCC-2998 colon)?
A: Its GI50 is over 100 µM.

Q: And the TGI (HCC-2998 colon)?
A: The TGI was over 100 µM.

Q: And the GI50 (HCT-116 colon)?
A: Its GI50 is over 100 µM.

Q: What about the TGI (HCT-116 colon) of the same compound?
A: Its TGI is over 100 µM.

Q: And the GI50 (TK-10 renal)?
A: The GI50 was over 100 µM.

Q: And the TGI (TK-10 renal)?
A: Its TGI is over 100 µM.

Q: And the GI50 (NCI-H522 lung)?
A: Its GI50 is over 100 µM.

Q: What about the TGI (NCI-H522 lung) of the same compound?
A: Its TGI is over 100 µM.

Q: What about the GI50 (SK-MEL-28 melanoma) of the same compound?
A: The GI50 was over 100 µM.

Q: And the TGI (SK-MEL-28 melanoma)?
A: The TGI was over 100 µM.

Q: What about the GI50 (SNB-75 CNS) of the same compound?
A: Its GI50 is over 100 µM.

Q: What about the TGI (SNB-75 CNS) of the same compound?
A: The TGI was over 100 µM.

Q: And the GI50 (SNB-19 CNS)?
A: The GI50 was over 100 µM.

Q: What about the TGI (SNB-19 CNS) of the same compound?
A: The TGI was over 100 µM.

Q: And the GI50 (OVCAR-3 ovarian)?
A: Its GI50 is over 100 µM.

Q: And the TGI (OVCAR-3 ovarian)?
A: The TGI was over 100 µM.

Q: And the GI50 (MDA-MB-231 breast)?
A: Its GI50 is over 100 µM.

Q: What about the TGI (MDA-MB-231 breast) of the same compound?
A: Its TGI is over 100 µM.

Q: What about the GI50 (PC-3 prostate) of the same compound?
A: The GI50 was over 100 µM.

Q: What about the TGI (PC-3 prostate) of the same compound?
A: The TGI was over 100 µM.

Q: And the GI50 (SW-620 colon)?
A: The GI50 was over 100 µM.

Q: What about the TGI (SW-620 colon) of the same compound?
A: Its TGI is over 100 µM.

Q: And the GI50 (UACC-62 melanoma)?
A: The GI50 was over 100 µM.

Q: What about the TGI (UACC-62 melanoma) of the same compound?
A: Its TGI is over 100 µM.

Q: And the GI50 (SF-295 CNS)?
A: Its GI50 is over 100 µM.

Q: And the TGI (SF-295 CNS)?
A: Its TGI is over 100 µM.

Q: And the GI50 (UO-31 renal)?
A: The GI50 was over 100 µM.

Q: What about the TGI (UO-31 renal) of the same compound?
A: The TGI was over 100 µM.

Q: What about the GI50 (HOP-92 NSCLC) of the same compound?
A: The GI50 was over 100 µM.

Q: What about the TGI (HOP-92 NSCLC) of the same compound?
A: The TGI was over 100 µM.

Q: And the GI50 (786-0 renal)?
A: Its GI50 is over 100 µM.

Q: What about the TGI (786-0 renal) of the same compound?
A: The TGI was over 100 µM.

Q: What about the GI50 (MCF7 breast) of the same compound?
A: Its GI50 is over 100 µM.

Q: And the TGI (MCF7 breast)?
A: The TGI was over 100 µM.

Q: And the GI50 (NCI-H460 lung)?
A: Its GI50 is over 100 µM.

Q: What about the TGI (NCI-H460 lung) of the same compound?
A: The TGI was over 100 µM.

Q: What about the GI50 (M14 melanoma) of the same compound?
A: Its GI50 is over 100 µM.

Q: What about the TGI (M14 melanoma) of the same compound?
A: The TGI was over 100 µM.

Q: What about the GI50 (HS 578T breast) of the same compound?
A: Its GI50 is over 100 µM.

Q: And the TGI (HS 578T breast)?
A: The TGI was over 100 µM.

Q: And the GI50 (OVCAR-5 ovarian)?
A: The GI50 was over 100 µM.

Q: What about the TGI (OVCAR-5 ovarian) of the same compound?
A: The TGI was over 100 µM.

Q: And the GI50 (NCI-H23 lung)?
A: The GI50 was over 100 µM.

Q: And the TGI (NCI-H23 lung)?
A: Its TGI is over 100 µM.

Q: And the GI50 (SK-MEL-2 melanoma)?
A: The GI50 was over 100 µM.

Q: What about the TGI (SK-MEL-2 melanoma) of the same compound?
A: Its TGI is over 100 µM.
